This is an account of results in patent US10420341B2, “Herbicidal phenylpyrimidines” (BASF SE, priority 2015, dated 2019).

For one assay, the system named is SETFA. Nature of the assay: greenhouse pre-emergence herbicidal test. In kind it is in vivo, Setaria faberi. As to conditions: pre-emergence method, scale from 0 to 100. From the text: The seeds of the test plants were sown separately for each species. For the pre-emergence treatment, the active ingredients, which had been suspended or emulsified in water, were applied directly after sowing by means of finely distributing nozzles. The containers were irrigated gently to promote germination and growth and subsequently covered with transparent plastic hoods until the plants had rooted. This cover caused uniform germination of the test plants, unless this had been impaired by the active ingredients. Depending on the species, the plants were kept at 10-25° C. or 20-35° C., respectively. The test period extended over 2 to 4 weeks. During this time, the plants were tended, and their response to the individual treatments was evaluated. Evaluation was carried out using a scale from 0 to 100. 100 means no emergence of the plants, or complete destruction of at least the aerial moieties, and 0 means no damage, or normal course of growth. […] The plants used in the greenhouse experiments were of the following species: [table]

Assay [1] relates to ECHCG. Nature of the assay: greenhouse post-emergence herbicidal test. As to conditions: post-emergence method, scale from 0 to 100. In kind it is in vivo, Echinocloa crus-galli. The procedure, abridged: (§1)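 Scoring 0 (no damage) to 100 (no emergence or total destruction of aerial parts), taken over a 2 to 4 week period after post-emergence treatment at 3 to 15 cm plant height. Compounds applied as aqueous suspension or emulsion; greenhouse temperature 10-25° C. or 20-35° C. depending on species.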

Another assay concerns ABUTH. Nature of the assay: greenhouse post-emergence herbicidal test. As to conditions: post-emergence method, scale from 0 to 100. In kind it is in vivo, Abutilon theophrasti. The text has this:
(§2) The seeds of the test plants were sown separately for each species. For the post-emergence treatment, the test plants were first grown to a height of 3 to 15 cm, depending on the plant habit, and only then treated with the active ingredients which had been suspended or emulsified in water. For this purpose, the test plants were either sown directly and grown in the same containers, or they were first grown separately as seedlings and transplanted into the test containers a few days prior to treatment. Depending on the species, the plants were kept at 10-25° C. or 20-35° C., respectively. The test period extended over 2 to 4 weeks. During this time, the plants were tended, and their response to the individual treatments was evaluated. Evaluation was carried out using a scale from 0 to 100. 100 means no emergence of the plants, or complete destruction of at least the aerial moieties, and 0 means no damage, or normal course of growth. […] The plants used in the greenhouse experiments were of the following species: [table]

Assay [2] relates to ECHCG. Nature of the assay: greenhouse pre-emergence herbicidal test. The class given is in vivo, Echinocloa crus-galli. As to conditions: pre-emergence method, scale from 0 to 100. The procedure, abridged:
(§3)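 Rated on a 0 (normal growth) to 100 (no emergence/total aerial kill) scale over a 2-4 week test period. Aqueous suspensions or emulsions applied by fine nozzles right after sowing, then plants held under hoods at 10-25 °C or 20-35 °C depending on species.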

In the next assay the test system is SETVI. Nature of the assay: greenhouse post-emergence herbicidal test. The class given is in vivo, Setaria viridis. To be noted: post-emergence method, application rate 500 g/ha, scale from 0 to 100.
Source text: as §2

A further assay concerns POLCO. Nature of the assay: greenhouse post-emergence herbicidal test. The class given is in vivo, Polygonum convolvulus. To be noted: post-emergence method, application rate 500 g/ha, scale from 0 to 100. The procedure, abridged: as §1
In the next assay the test system is APESV. Nature of the assay: greenhouse pre-emergence herbicidal test. In kind it is in vivo, Apera spica-venti. As to conditions: pre-emergence method, scale from 0 to 100. The procedure, abridged:
as §3

The subject of a further assay is AMARE. Nature of the assay: greenhouse post-emergence herbicidal test. In kind it is in vivo, Amaranthus retroflexus. To be noted: post-emergence method, application rate 1000 g/ha, scale from 0 to 100. The procedure, abridged:
as §1

For the compound `O=C(O)c1nc(C2CCC2)ncc1-c1ccccc1Cl` [example 2, 5-(2-Chlorophenyl)-2-cyclobutyl-pyrimidine-4-carboxylate], in the assay with SETFA (application rate 1000 g/ha), the “herbicidal activity against SETFA” value was “good (A good herbicidal activity is given at values of at least 70)”. The “herbicidal activity against ECHCG” value in the assay on ECHCG [1] (application rate 1000 g/ha) was “good (A good herbicidal activity is given at values of at least 70)”. The “herbicidal activity against ABUTH” value in the assay with ABUTH (application rate 1000 g/ha) is “good (A good herbicidal activity is given at values of at least 70)”.

For the compound `COC(=O)c1nc(C(C)C)ncc1-c1ccccc1C` [example 37], in the assay on SETFA (application rate 1000 g/ha), the “herbicidal activity against SETFA” value is given as “very good (a very good herbicidal activity is given at values of at least 85)”. Moreover, the “herbicidal activity against ECHCG” value in the assay with ECHCG [2] (application rate 1000 g/ha) and with ECHCG [1] (application rate 1000 g/ha) was “very good (a very good herbicidal activity is given at values of at least 85)” throughout.

In the case of `CSc1ncc(-c2cc(C)ccc2Cl)c(C(=O)O)n1` [example 86], the “herbicidal activity against SETFA” value with SETFA (application rate 1000 g/ha) is recorded as “good (A good herbicidal activity is given at values of at least 70)”. Moreover, the “herbicidal activity against ECHCG” value in the assay on ECHCG [2] (application rate 1000 g/ha) was “good (A good herbicidal activity is given at values of at least 70)”.

Take `CSc1ncc(-c2ccccc2S(C)(=O)=O)c(C(=O)O)n1` [example 114]: the “herbicidal activity against SETFA” value in the assay on SETFA (application rate 2000 g/ha) was “very good (a very good herbicidal activity is given at values of at least 85)”.

In the case of `Cc1ccccc1-c1cnc(S(C)(=O)=O)nc1C(=O)O` [example 127], the “herbicidal activity against SETFA” value in the assay on SETFA (application rate 2000 g/ha) is reported as “good (A good herbicidal activity is given at values of at least 70)”.

Take `Cc1ccc(Cl)c(-c2cnc(C3CC3)nc2C(=O)O)c1` [example 144]: the “herbicidal activity against SETVI” value in the assay with SETVI was “very good (a very good herbicidal activity is given at values of at least 85)”. For the same compound, the “herbicidal activity against POLCO” value in the assay with POLCO is “very good (a very good herbicidal activity is given at values of at least 85)”. Besides, the “herbicidal activity against ECHCG” value with ECHCG [2] (application rate 500 g/ha) is on record as “very good (a very good herbicidal activity is given at values of at least 85)”. Also, in the assay on APESV (application rate 500 g/ha), the “herbicidal activity against APESV” value was “very good (a very good herbicidal activity is given at values of at least 85)”.

For `COC(=O)c1nc(C2CC2)ncc1-c1c(Br)ccc(C)c1F` [example 198], the “herbicidal activity against SETVI” value in the assay with SETVI was “very good (a very good herbicidal activity is given at values of at least 85)”. Also, the “herbicidal activity against ECHCG” value with ECHCG [2] (application rate 500 g/ha) is recorded as “very good (a very good herbicidal activity is given at values of at least 85)”. Moreover, the “herbicidal activity against APESV” value in the assay on APESV (application rate 500 g/ha) is reported as “very good (a very good herbicidal activity is given at values of at least 85)”. Moreover, in the assay with ABUTH (application rate 500 g/ha), the “herbicidal activity against ABUTH” value is given as “very good (a very good herbicidal activity is given at values of at least 85)”.

Regarding `Cc1ccccc1-c1cnc(-c2ccccc2)nc1C(=O)O` [example 271], the “herbicidal activity against SETFA” value in the assay on SETFA (application rate 500 g/ha) was “good (A good herbicidal activity is given at values of at least 70)”. Further, the “herbicidal activity against ECHCG” value with ECHCG [1] (application rate 500 g/ha) is recorded as “very good (a very good herbicidal activity is given at values of at least 85)”. Further, the “herbicidal activity against ABUTH” value with ABUTH (application rate 500 g/ha) is reported as “very good (a very good herbicidal activity is given at values of at least 85)”.

As to `COC(=O)c1nc(C2CC2)ncc1-c1c(Cl)cccc1C(F)(F)F` [example 302], in the assay with SETFA (application rate 1000 g/ha), the “herbicidal activity against SETFA” value is listed as “very good (a very good herbicidal activity is given at values of at least 85)”. Moreover, the “herbicidal activity against AMARE” value in the assay on AMARE is listed as “very good (a very good herbicidal activity is given at values of at least 85)”. The “herbicidal activity against ECHCG” value with ECHCG [1] (application rate 1000 g/ha) is recorded as “very good (a very good herbicidal activity is given at values of at least 85)”.

As for `CCOc1cccc(Br)c1-c1cnc(C2CC2)nc1C(=O)O` [example 303], the “herbicidal activity against SETFA” value in the assay on SETFA (application rate 1000 g/ha) is recorded as “very good (a very good herbicidal activity is given at values of at least 85)”. The “herbicidal activity against APESV” value in the assay on APESV (application rate 1000 g/ha) is listed as “very good (a very good herbicidal activity is given at values of at least 85)”. The “herbicidal activity against ECHCG” value in the assay on ECHCG [1] (application rate 1000 g/ha) is “very good (a very good herbicidal activity is given at values of at least 85)”.
